The values that follow come from paper PMC10504495 (iScience, 2023).

The pKd is the negative decadic logarithm of the Kd, by convention in mol/L. A high value points to a low Kd. In general, kcat refers to the maximal rate divided by the concentration of active sites. In general, Vmax refers to the top rate of the reaction or transport when substrate is in excess.

One test concerns lysine lactylation. As to conditions: cells, 24 h treatment; cited from earlier work. An excerpt: Chemical affinity-based probes are powerful tools that convert weak protein-ligand interactions into robust covalent chemical linkages, thus enabling the capture of transient interactions. […] We tried to use this la ...
Test [1] concerns the target T1, SIRT3 (Homo sapiens, UniProt Q9NTG7).
T1 construct: SIRT3 (118–399 aa); 6xHis with TEV site (pET-N-6xHis-TEV vector) (N, cleaved yes); made in house; host or cells: E. coli BL21-CodonPlus (DE3)-RIL
T1 sequence (Q9NTG7 118-399): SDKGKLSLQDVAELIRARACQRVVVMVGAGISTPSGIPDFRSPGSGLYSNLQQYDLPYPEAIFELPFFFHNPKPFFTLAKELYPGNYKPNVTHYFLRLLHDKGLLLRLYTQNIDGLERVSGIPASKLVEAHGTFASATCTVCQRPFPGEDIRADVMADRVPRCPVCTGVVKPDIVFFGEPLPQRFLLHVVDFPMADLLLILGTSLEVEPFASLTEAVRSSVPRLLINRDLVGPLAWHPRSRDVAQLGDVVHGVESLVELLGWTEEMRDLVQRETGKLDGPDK
As to the kind of experiment: NAD+ consumption/cycling assay. It counts as biochemical. As to conditions: for delactylation activity in words: NAD+ consumption/cycling, 3 h, Figures 1A, S2.
Description: To screen the delactylation activity of Sirtuins, we employed a modified[35] NAD^+ cycling assay to measure the amount of unused NAD^+ levels after Sirtuins’ consumption reactions. This assay involves the conversion of NAD^+ to NADH by alcohol dehydrogenase, followed by the conversion of NADH to NAD^+ by NADH oxidoreductase, diaphorase with resazurin as an electron acceptor. The reduced resazurin is then measured as resorufin, which has a high fluorescence characteristic.[36]
To perform the NAD^+ consumption assay, 50 μM recombinant Sirtuins were co-incubated with 500 μM Kla peptides and 100 μM NAD^+ in 150 NaCl, 20 mM Tris (pH = 7.5) buffer for 3 h or overnight at 37°C. Then, hydrochloric acid, final concentration at 150 mM, was added to terminate the reaction. As for the cycling assay, 200 μL reaction buffer containing 100 mM Na2HPO4 (pH = 8.0), 10 μM resazurin, 10 μM flavin mononucleotide (FMN), 1% absolute ethanol, 66.5 μg/mL alcohol dehydrogenase and 5 μg/mL diaphorase was simultaneously mixed with 10 μL of NAD^+ consumption mixtures in 96-well white plate. Then, the plate was immediately measured by fluorescence spectrophotometer under excitation 549 nm, emission 576 nm condition.

The target in test [2] is human SIRT1 core region (234-505 aa) (human) (UniProt Q96EB6). As to the kind of experiment: ITC; 40 uL of 2 mM peptide in 20 injections titrated into 200 uL of 30 uM Sirtuin in the cell; 25 C; Tris pH 7.5, 150 mM NaCl; MicroCal PEAQ-ITC analysis software.
The target of test [3] is human SIRT2 (50-356 aa) (human) (UniProt Q8IXJ6). The test is described as above.
Test [4] concerns the target T2, SIRT1 (Homo sapiens, UniProt Q96EB6).
T2 construct: the human SIRT1 core region (234–505 aa); SUMO (pET-28a-sumo vector) (cleaved yes); made in house; host or cells: E. coli BL21-CodonPlus (DE3)-RIL
T2 sequence (Q96EB6 234-505): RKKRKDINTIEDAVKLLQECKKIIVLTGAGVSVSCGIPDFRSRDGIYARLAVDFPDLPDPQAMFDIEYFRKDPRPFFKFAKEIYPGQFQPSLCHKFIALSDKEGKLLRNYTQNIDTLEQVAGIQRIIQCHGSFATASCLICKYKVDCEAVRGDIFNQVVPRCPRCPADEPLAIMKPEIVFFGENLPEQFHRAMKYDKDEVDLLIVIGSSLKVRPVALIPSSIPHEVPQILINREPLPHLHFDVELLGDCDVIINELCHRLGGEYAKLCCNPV
As to the kind of experiment: HPLC/LC-MS delactylation (erased ratio). As to conditions: 100 μM peptide, 200 nM SIRT1, 37°C, 3 h. It counts as biochemical. An excerpt: (§1) To prepare for the enzymatic assays and crystallization, the human SIRT1 core region (234–505 aa), SIRT2 (50–356 aa), SIRT5 (32–302), and full-length SIRT7 were cloned into a pET-28a-sumo vector, while SIRT3 (118–399 aa) and full-length SIRT6 were cloned into a pET-N-6xHis-TEV (Tobacco etch virus) vector. These vectors were then transformed and expressed in BL21-CodonPlus (DE3)-RIL competent cells. The recombinant proteins were purified via affinity and ion exchange purification, followed by gel filtration. To remove tags during purification, TEV, and sumo protease were utilized. The purified recombinant human Sirtuins were then concentrated to a final concentration of 10 mg/mL and stored at −80°C freezer for use in the following experiments.
(§2) LC-MS analysis was performed to test and verify the delactylation activity of Sirtuins. The lactyl peptides used in LC-MS assay was added 2 additional tryptophan residues at the N- and C- terminus to enhance the HPLC absorption sensitiveness. After incubating the peptides with Sirtuins/HDAC3 at 37°C for 3 h. The reaction was halted by methanol, and LC-MS was used to analyze the erased ratio of different peptides.

For another test, the target named is T3, SIRT2 (Homo sapiens, UniProt Q8IXJ6).
T3 construct: SIRT2 (50–356 aa); SUMO (pET-28a-sumo vector) (cleaved yes); made in house; host or cells: E. coli BL21-CodonPlus (DE3)-RIL
T3 sequence (Q8IXJ6 50-356): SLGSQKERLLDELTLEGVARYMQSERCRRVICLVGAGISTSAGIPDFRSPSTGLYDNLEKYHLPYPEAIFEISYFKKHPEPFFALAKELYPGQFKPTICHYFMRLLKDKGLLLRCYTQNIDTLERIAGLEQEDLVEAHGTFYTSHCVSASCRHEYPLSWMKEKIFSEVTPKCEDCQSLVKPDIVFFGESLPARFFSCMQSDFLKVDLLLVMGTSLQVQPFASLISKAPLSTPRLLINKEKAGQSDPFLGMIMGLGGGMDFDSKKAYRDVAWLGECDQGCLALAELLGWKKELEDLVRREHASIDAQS
As to the kind of experiment: HPLC/LC-MS delactylation (erased ratio). In kind it is biochemical. As to conditions: 100 μM peptide, 200 nM SIRT2, 37°C, 3 h.
Description: as §1, §2

For test [5], the target named is T1, SIRT3. As to the kind of experiment: HPLC/LC-MS delactylation (erased ratio). It counts as biochemical. As to conditions: 100 μM peptide, 200 nM SIRT3, 37°C, 3 h; compared with other Sirtuins.
Description: as §1, §2

Test [6] addresses T2, SIRT1. As to the kind of experiment: NAD+ consumption/cycling assay. In kind it is biochemical. As to conditions: overnight (≥12 h).
Description: as §1
To screen the delactylation activity of Sirtuins, we employed a modified[35] NAD^+ cycling assay to measure the amount of unused NAD^+ levels after Sirtuins’ consumption reactions. […] The reduced resazurin is then measured as resorufin, which has a high fluorescence characteristic.[36]
To perform the NAD^+ consumption assay, 50 μM recombinant Sirtuins were co-incubated with 500 μM Kla peptides and 100 μM NAD^+ in […], 20 mM Tris (pH = 7.5) buffer for 3 h or overnight at 37°C. […] Then, the plate was immediately measured by fluorescence spectrophotometer under excitation 549 nm, emission 576 nm condition.

The subject of the next test is HDAC3/NCOR2. As to the kind of experiment: HPLC/LC-MS delactylation (erased ratio). As to conditions: 100 μM peptide, 200 nM HDAC3/NCOR2, 37°C, 3 h; in comparison with Sirtuins. It counts as biochemical. Here is the method:
as §2

In test [7] the target is T1, SIRT3. As to the kind of experiment: Kinetic study by HPLC, Lineweaver-Burk. It counts as biochemical. The note with it: 10-200 μM peptide, 200 nM SIRT3, Tris pH 7.4, 37°C, 40 min, HPLC 280 nm, 3 replicates.
Description: as §1
To perform the kinetic study, the erasing rate was determined using the HPLC method. The KM and kcat values were then computed using the Lineweaver-Burk method.[37] […] The erased rate was evaluated by HPLC, and integrations at 280 nm were recorded to give the erased ratio. The kinetic parameters were then obtained using the formula: 1/v=(KM/Vmax)(1/[S])+1/Vmax .

pKd: −log10 of the molar value.

Turning to `CC(O)C(=O)[O-].[Na+]` (stereo not drawn) [sodium lactate], the “induction of lysine lactylation” value in the test on lysine lactylation was “will induce detectable levels of lysine lactylation”.
Regarding “WKQLATK (L/D-lactic acid) AARKW [H3K23la, lactyl-lysine H3K23 peptide]”, the “delactylation activity in words” value at SIRT3 [1] is given as “higher delactylation activity”.
On to H3K9ac peptide, for which the figures for the pKd in test [2] and in [3] were 4.03 and 4.37, respectively.
On to “WKGLGK (L/D-lactic acid) GGAKW [H4K12la, lactyl-lysine H4K12 peptide]”, for which the “hydrolytic activity, HPLC” value at SIRT1 [4] and at SIRT2 was “didn’t show any hydrolytic activity” throughout. Moreover, the “erased ratio / hydrolytic activity, HPLC” value at SIRT3 [5] is recorded as “didn’t show any hydrolytic activity”.
As for “QTARK (L/D lactic acid) STGG [H3K9la, lactyl-lysine H3K9 peptide; Trp-flanked version used in HPLC-MS]”, the “NAD+ consumption overnight in words” value at SIRT1 [6] is “consumed much higher level of NAD^+”. Moreover, on SIRT1 [4], the “hydrolytic activity, HPLC” value was “slight hydrolytic activity”.
Regarding “KGGAK (L/D lactic acid) RHRK [H4K16la, lactyl-lysine H4K16 peptide; NAD+ assay and ITC]”, the “delactylation activity in words” value on SIRT3 [1] is on record as “higher delactylation activity”. The “NAD+ consumption overnight in words” value on SIRT3 [1] (overnight (≥12 h)) is recorded as “consumed much higher level of NAD^+”. On SIRT1 [4], the “hydrolytic activity, HPLC” value was “slight hydrolytic activity”. Also, the “in vitro delactylation activity, HPLC” value in the test on HDAC3/NCOR2 is listed as “highest in vitro delactylation activity”. Besides, the kcat at SIRT3 [7] was determined as 0.08 ± 0.008 s⁻¹. Moreover, the Vmax at SIRT3 [7] (Lineweaver-Burk) came to 0.925 ± 0.101 µmol/L/min.
